ChEMBL document CHEMBL5465560, “Selectivity Literature for EUbOPEN Chemogenomic Library” (2024)

Assays:
[1] = molecular target: Tyrosine-protein kinase CSK (Homo sapiens) (UniProt P41240); assay: Selectivity interaction (KinomeScan (DiscoverX)) EUB0000666a CSK; details: at 10 µM
[2] = molecular target: T1, Serine/threonine-protein kinase Nek2 (Homo sapiens) (UniProt P51955); assay: Selectivity interaction (KinomeScan (DiscoverX)) EUB0000229b NEK2; details: at 10 µM
T1 sequence (whole entry): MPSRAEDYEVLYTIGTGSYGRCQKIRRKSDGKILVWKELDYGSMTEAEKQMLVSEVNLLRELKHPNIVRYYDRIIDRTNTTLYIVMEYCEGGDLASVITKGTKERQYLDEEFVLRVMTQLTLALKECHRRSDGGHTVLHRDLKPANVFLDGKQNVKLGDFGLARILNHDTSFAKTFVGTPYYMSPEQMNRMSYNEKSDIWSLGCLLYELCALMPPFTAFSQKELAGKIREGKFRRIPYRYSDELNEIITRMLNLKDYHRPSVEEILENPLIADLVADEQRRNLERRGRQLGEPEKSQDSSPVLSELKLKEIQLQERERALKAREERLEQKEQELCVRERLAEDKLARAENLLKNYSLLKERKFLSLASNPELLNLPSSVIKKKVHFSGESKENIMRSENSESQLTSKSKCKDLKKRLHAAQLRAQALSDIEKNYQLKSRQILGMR

[3] = molecular target: Dual specificity testis-specific protein kinase 1 (Homo sapiens) (UniProt Q15569); assay: Selectivity interaction (KinomeScan (DiscoverX)) EUB0001079a TESK1; details: at 1 µM
[4] = molecular target: Bromodomain adjacent to zinc finger domain protein 1A (Homo sapiens) (UniProt Q9NRL2); assay: Selectivity interaction (Bromodomain panel (DSF asssay)) EUB0000270b BAZ1A
[5] = molecular target: T2, Cyclin-dependent kinase 11A (Homo sapiens) (UniProt Q9UQ88); assay: Selectivity interaction (ActivX KiNativ screen (kinase selectivity in THP-1 cell lysates)) EUB0000639a CDK11A; type: subcellular; details: lysate
T2 sequence (whole entry): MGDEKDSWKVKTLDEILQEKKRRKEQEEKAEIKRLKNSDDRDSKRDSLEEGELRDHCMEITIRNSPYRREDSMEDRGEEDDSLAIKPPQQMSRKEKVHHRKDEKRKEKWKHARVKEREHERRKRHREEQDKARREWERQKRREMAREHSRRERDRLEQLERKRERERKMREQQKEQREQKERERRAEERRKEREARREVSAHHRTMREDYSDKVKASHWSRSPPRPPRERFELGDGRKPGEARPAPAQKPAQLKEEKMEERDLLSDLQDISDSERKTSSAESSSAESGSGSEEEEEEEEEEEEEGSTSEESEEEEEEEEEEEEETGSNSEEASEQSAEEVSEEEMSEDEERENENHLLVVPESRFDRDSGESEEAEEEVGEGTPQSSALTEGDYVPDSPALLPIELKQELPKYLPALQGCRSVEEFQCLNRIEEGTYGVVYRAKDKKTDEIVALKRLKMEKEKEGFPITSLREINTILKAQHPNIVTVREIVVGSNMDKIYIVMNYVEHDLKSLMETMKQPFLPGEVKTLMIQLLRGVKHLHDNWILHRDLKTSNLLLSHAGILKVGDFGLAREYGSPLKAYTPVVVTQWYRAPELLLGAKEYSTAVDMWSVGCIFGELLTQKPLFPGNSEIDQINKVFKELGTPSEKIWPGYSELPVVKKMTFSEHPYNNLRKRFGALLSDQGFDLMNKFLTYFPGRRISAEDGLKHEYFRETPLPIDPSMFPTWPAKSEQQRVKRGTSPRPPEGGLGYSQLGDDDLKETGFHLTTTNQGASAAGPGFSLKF

[6] = molecular target: T3, MAP/microtubule affinity-regulating kinase 4 (Homo sapiens) (UniProt Q96L34); assay: Selectivity interaction (Ambit KINOMEscan and KiNATiv profiling in Jurkat cells) EUB0000090b MARK4; type: cell-based; details: at 1 µM
T3 sequence (whole entry): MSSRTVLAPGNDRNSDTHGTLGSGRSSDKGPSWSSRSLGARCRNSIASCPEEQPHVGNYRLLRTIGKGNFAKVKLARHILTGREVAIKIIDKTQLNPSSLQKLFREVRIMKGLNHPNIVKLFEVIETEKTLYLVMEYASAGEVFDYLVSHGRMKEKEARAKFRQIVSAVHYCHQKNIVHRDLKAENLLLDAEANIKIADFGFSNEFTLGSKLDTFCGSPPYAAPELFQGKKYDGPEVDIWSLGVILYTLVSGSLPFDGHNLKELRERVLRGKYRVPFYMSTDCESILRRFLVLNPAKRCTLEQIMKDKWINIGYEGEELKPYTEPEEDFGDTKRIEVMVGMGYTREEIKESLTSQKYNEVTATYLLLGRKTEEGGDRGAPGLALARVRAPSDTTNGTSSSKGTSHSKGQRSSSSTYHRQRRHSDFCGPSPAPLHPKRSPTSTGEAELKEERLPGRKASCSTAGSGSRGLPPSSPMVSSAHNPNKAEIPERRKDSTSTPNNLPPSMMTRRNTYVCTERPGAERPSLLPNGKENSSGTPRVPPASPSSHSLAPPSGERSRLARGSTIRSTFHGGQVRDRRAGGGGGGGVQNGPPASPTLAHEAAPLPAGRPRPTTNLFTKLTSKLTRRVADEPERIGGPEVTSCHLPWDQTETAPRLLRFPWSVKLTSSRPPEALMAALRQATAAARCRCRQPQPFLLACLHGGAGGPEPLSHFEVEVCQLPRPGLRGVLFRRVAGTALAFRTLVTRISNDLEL

[7] = molecular target: Histone-lysine N-methyltransferase, H3 lysine-36 specific (Homo sapiens) (UniProt Q96L73); assay: Selectivity interaction (Methyltransferase screen (Scintillation proximity assays)) EUB0000255b NSD1
[8] = molecular target: T4, Mitogen-activated protein kinase 12 (Homo sapiens) (UniProt P53778); assay: Selectivity interaction (KinomeScan (DiscoverX)) EUB0000045b MAPK12
T4 sequence (whole entry): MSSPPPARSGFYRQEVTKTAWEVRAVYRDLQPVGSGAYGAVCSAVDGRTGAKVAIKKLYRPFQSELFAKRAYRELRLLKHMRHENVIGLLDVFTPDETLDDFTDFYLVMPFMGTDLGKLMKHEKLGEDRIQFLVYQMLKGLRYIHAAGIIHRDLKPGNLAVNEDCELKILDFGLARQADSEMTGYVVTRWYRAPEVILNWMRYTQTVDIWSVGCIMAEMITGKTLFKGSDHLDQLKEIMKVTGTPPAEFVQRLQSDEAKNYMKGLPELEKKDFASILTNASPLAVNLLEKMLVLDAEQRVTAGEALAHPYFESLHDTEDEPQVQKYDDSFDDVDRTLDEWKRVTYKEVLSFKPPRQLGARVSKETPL

[9] = molecular target: Tyrosine-protein kinase SYK (Homo sapiens, UniProt P43405); assay: Selectivity interaction (ProQinase) EUB0000171b SYK

Chain of Histone-lysine N-methyltransferase, H3 lysine-36 specific (Homo sapiens) (Q96L73 whole entry): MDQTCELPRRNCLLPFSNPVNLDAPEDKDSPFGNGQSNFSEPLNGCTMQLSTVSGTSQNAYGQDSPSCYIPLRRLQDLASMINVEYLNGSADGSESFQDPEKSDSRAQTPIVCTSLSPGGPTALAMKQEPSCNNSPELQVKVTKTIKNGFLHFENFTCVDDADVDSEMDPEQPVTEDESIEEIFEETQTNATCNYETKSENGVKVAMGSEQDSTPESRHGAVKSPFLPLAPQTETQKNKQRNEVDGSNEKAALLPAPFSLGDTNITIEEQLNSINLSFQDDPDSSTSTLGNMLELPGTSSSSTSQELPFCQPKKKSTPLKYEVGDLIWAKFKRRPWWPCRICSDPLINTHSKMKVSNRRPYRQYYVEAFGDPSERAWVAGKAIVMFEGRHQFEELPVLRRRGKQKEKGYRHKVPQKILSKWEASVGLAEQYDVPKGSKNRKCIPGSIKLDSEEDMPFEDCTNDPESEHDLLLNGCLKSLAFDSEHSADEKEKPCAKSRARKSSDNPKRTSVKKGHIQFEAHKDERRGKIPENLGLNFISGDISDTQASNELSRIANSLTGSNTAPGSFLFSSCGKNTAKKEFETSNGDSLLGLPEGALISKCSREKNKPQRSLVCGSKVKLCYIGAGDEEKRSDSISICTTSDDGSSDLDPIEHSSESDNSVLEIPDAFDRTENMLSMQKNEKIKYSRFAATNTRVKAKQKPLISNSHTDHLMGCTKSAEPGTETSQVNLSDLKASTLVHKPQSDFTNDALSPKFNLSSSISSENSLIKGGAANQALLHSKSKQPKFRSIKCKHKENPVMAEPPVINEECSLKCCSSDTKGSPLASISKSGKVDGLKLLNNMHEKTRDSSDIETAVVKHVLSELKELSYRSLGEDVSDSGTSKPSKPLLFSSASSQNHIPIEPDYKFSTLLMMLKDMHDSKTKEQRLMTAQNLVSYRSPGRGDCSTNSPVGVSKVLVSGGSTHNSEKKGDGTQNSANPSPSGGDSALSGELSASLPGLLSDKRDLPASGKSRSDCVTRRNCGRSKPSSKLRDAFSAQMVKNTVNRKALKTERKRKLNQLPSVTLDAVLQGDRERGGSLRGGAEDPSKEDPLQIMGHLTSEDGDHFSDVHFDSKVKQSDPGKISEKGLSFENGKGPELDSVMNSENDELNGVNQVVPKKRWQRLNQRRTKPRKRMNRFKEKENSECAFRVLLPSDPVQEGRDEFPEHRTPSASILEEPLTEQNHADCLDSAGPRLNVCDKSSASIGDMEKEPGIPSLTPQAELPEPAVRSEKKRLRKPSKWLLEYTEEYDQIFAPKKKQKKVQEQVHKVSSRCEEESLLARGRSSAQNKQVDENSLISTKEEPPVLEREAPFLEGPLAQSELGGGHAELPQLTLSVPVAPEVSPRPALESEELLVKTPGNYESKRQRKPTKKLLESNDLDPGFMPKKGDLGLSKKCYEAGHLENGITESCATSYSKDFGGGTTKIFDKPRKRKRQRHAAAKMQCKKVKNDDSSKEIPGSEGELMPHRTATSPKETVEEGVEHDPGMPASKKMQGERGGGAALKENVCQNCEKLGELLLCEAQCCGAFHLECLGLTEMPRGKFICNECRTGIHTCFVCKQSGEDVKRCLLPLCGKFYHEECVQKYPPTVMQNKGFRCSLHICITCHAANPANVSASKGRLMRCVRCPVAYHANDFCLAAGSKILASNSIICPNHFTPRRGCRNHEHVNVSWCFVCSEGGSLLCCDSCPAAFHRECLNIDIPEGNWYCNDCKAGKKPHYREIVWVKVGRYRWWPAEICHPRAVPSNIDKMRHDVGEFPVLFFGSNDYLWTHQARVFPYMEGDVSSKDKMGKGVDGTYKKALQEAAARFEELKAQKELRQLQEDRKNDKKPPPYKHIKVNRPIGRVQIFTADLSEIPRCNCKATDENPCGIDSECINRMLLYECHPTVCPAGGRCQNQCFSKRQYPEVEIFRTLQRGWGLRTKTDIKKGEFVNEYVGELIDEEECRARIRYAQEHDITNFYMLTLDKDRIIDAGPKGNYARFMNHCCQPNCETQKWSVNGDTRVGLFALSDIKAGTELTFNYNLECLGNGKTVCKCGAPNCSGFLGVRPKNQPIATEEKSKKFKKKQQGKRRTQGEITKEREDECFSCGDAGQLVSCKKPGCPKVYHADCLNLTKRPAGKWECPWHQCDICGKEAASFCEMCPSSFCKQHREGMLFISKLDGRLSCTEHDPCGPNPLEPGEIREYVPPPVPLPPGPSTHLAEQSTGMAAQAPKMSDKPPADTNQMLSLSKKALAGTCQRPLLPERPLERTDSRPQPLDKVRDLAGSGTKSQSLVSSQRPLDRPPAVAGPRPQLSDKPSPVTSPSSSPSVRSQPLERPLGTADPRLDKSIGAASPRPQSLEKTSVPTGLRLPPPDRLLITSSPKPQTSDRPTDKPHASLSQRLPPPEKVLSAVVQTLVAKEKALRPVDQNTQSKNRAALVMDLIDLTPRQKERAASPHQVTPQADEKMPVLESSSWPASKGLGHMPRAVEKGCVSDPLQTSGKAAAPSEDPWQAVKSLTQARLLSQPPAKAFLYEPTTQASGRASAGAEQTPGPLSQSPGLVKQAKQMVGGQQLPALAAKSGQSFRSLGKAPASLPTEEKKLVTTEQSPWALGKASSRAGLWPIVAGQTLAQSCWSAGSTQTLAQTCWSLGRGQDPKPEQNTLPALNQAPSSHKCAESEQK
Chain of Tyrosine-protein kinase CSK (Homo sapiens) (P41240 2-450 limits assumed): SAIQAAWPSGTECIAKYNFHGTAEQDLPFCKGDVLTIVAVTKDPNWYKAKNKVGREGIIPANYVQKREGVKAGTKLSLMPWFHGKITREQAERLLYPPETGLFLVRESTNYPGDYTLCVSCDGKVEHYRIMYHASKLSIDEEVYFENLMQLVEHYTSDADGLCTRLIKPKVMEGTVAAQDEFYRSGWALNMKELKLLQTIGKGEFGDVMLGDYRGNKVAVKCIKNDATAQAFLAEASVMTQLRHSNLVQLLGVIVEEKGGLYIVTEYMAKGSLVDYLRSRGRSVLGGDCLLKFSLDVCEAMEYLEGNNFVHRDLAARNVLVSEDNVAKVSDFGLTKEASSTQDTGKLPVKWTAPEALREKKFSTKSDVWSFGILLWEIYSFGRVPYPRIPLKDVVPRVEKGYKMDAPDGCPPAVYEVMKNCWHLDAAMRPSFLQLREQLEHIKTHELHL
Chain of Dual specificity testis-specific protein kinase 1 (Homo sapiens) (Q15569 whole entry, looked up, the tested form may be a part): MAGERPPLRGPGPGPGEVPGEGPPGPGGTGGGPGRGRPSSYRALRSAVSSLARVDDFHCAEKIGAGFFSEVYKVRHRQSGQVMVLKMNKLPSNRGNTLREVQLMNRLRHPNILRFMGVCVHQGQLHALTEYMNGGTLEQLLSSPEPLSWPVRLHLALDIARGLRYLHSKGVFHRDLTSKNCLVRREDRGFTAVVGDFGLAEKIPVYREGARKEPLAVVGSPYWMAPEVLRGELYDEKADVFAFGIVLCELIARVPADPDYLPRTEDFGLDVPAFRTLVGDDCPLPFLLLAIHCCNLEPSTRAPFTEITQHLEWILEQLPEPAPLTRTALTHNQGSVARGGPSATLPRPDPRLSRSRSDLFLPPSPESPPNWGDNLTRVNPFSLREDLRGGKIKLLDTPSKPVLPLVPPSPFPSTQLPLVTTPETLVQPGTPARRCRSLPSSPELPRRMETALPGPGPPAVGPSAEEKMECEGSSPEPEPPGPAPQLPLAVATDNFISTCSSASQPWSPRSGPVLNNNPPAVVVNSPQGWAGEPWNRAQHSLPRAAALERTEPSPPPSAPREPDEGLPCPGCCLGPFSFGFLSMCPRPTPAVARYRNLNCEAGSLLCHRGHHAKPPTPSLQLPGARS

O=C(NOC[C@H](O)CO)c1ccc(F)c(F)c1Nc1ccc(I)cc1F
% of control [1]: 100%

COc1cc(N(C)c2ccnc3ccc(C(F)(F)F)cc23)cc(OC)c1OC
% binding [2]: 92%

Nc1cnc(N2CCc3cc(S(=O)(=O)Nc4c(F)cc(Cl)cc4F)cc(N4CCCC4=O)c32)nc1 [TP-020n]
% of control [3]: 100%

Cc1cc(CN)cc(C)c1-c1ncn(C)c1-c1cncn1C
dTM [4]: -1.36 K

CC[C@@H]1[C@H](F)C(=O)N[C@@H]1COc1nccc2cc(C(N)=O)c(OC)cc12 [ZIMLOVISERTIB]
% of inhibition ([5]; at 0.01 µM): 10.4%
% of inhibition ([5]; at 0.04 µM): -11.1%
% of inhibition ([5]; at 0.2 µM): 2.6%
% of inhibition ([5]; at 1 µM): 7.8%
% of inhibition ([5]; at 5 µM): 18.7%

CN(C)C/C=C/C(=O)Nc1ccc(C(=O)N2CCCC(Nc3ncc(Cl)c(-c4c[nH]c5ccccc45)n3)C2)cc1 (stereo unspecified)
% of control [6]: 100%

COCCN1CCC(c2cc(CN(C)C(=O)c3cccc(Oc4ccccc4)c3)ccn2)CC1
% activity ([7]; at 1 µM): > 95%
% activity ([7]; at 10 µM): > 90%

C=CC(=O)Nc1cc(-n2c(=O)ccc3cnc4ccc(-c5ccc(NS(C)(=O)=O)cc5)cc4c32)ccc1C
% of control ([8]; at 1 µM): 72%
% of control ([8]; at 10 µM): 79%

C=CC(=O)Nc1cccc(C(=O)Nc2ccc(Nc3cc(-c4[nH]c(SC)nc4C)ccn3)cc2)c1
% of control ([9]; at 1 µM): 94%
% of control ([9]; at 5 µM): 86%
